The record followed here is PubChem BioAssay AID248 (DTP/NCI, 2004).

The assay has as its system L1210 leukemia ip in BDF1 mice, survival T/C. The assay is described as follows: NCI In Vivo Anticancer Drug Screen. Data for tumor model L1210 Leukemia (intraperitoneal) in B6D2F1 (BDF1) mice. The note with it: endpoint: mean survival time, higher = longer survival. An outline of the steps: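 Value reflects the ratio of survival in compound-treated mice to survival in vehicle-treated controls, with both groups carrying the same transplanted tumor.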

Where [1] appears, read: dose: 100.0 mg/kg/injection, schedule: Q01DX009 (ip), vehicle: gum acacia.
Setting [2] is: dose: 200.0 mg/kg/injection, schedule: Q01DX009 (ip), vehicle: gum acacia.
Where [3] appears, read: dose: 400.0 mg/kg/injection, schedule: Q01DX009 (ip), vehicle: gum acacia.
[4] abbreviates: dose: 200.0 mg/kg/injection, schedule: Q01DX009 (ip), vehicle: Klucel (hydroxypropylcellulose) (HPC).
Setting [5] is: dose: 400.0 mg/kg/injection, schedule: Q01DX009 (ip), vehicle: Klucel (hydroxypropylcellulose) (HPC).
Where [6] appears, read: dose: 75.0 mg/kg/injection, schedule: Q01DX001 (ip), vehicle: carboxymethylcellulose (CMC).
The mark [7] stands for this setting: dose: 100.0 mg/kg/injection, schedule: Q01DX005 (ip), vehicle: saline.
[8] abbreviates: dose: 100.0 mg/kg/injection, schedule: Q01DX009 (ip), vehicle: saline with Tween-80.
The mark [9] stands for this setting: dose: 100.0 mg/kg/injection, schedule: Q04DX003 (ip), vehicle: saline with Tween-80.
The mark [10] stands for this setting: dose: 200.0 mg/kg/injection, schedule: Q01DX009 (ip), vehicle: saline with Tween-80.
[11] abbreviates: dose: 200.0 mg/kg/injection, schedule: Q04DX003 (ip), vehicle: saline with Tween-80.
The mark [12] stands for this setting: dose: 400.0 mg/kg/injection, schedule: Q01DX009 (ip), vehicle: saline with Tween-80.
The mark [13] stands for this setting: dose: 400.0 mg/kg/injection, schedule: Q04DX003 (ip), vehicle: saline with Tween-80.
[14] abbreviates: dose: 50.0 mg/kg/injection, schedule: Q01DX001 (ip), vehicle: saline.
The mark [15] stands for this setting: dose: 100.0 mg/kg/injection, schedule: Q01DX001 (ip), vehicle: saline.
The mark [16] stands for this setting: dose: 200.0 mg/kg/injection, schedule: Q01DX001 (ip), vehicle: saline.
[17] abbreviates: dose: 400.0 mg/kg/injection, schedule: Q01DX001 (ip), vehicle: saline.
[18] abbreviates: dose: 100.0 mg/kg/injection, schedule: Q04DX002 (ip), vehicle: Klucel (hydroxypropylcellulose) (HPC).
Setting [19] is: dose: 100.0 mg/kg/injection, schedule: Q04DX003 (ip), vehicle: saline.
The mark [20] stands for this setting: dose: 200.0 mg/kg/injection, schedule: Q04DX003 (ip), vehicle: saline.
Where [21] appears, read: dose: 400.0 mg/kg/injection, schedule: Q04DX003 (ip), vehicle: saline.
[22] abbreviates: dose: 100.0 mg/kg/injection, schedule: Q01DX001 (ip), vehicle: carboxymethylcellulose (CMC).
Setting [23] is: dose: 200.0 mg/kg/injection, schedule: Q01DX001 (ip), vehicle: carboxymethylcellulose (CMC).
Where [24] appears, read: dose: 400.0 mg/kg/injection, schedule: Q01DX001 (ip), vehicle: carboxymethylcellulose (CMC).

Toxic doses and inconclusive results are not listed. Square brackets hold non-standard residues; d marks the D form. Peptide text beside a SMILES is read from it. ξ: configuration not given here. ξV = CC(C)C(N)C(=O)O

Turning to `O=C(NCCCN1CC1)C(=O)NCCCN1CC1`, the T/C is 121 % of control (dose: 1.5 mg/kg/injection, schedule: Q04DX003 (ip), vehicle: Klucel (hydroxypropylcellulose) (HPC)); 110 % of control (dose: 2.3 mg/kg/injection, schedule: Q04DX003 (ip), vehicle: Klucel (hydroxypropylcellulose) (HPC)); 112 % of control (dose: 3.12 mg/kg/injection, schedule: Q04DX003 (ip), vehicle: Klucel (hydroxypropylcellulose) (HPC)); 166 % of control (dose: 5.3 mg/kg/injection, schedule: Q04DX003 (ip), vehicle: Klucel (hydroxypropylcellulose) (HPC)); 173 % of control (dose: 8.0 mg/kg/injection, schedule: Q04DX003 (ip), vehicle: Klucel (hydroxypropylcellulose) (HPC)); 215 % of control (dose: 12.0 mg/kg/injection, schedule: Q04DX003 (ip), vehicle: Klucel (hydroxypropylcellulose) (HPC)). The T/C by setting is: (dose: 12.5 mg/kg/injection, schedule: Q04DX003 (ip), vehicle: Klucel (hydroxypropylcellulose) (HPC)) 180 % of control; (dose: 18.0 mg/kg/injection, schedule: Q04DX003 (ip), vehicle: Klucel (hydroxypropylcellulose) (HPC)) 183 % of control.
On to `O=C(COc1ccccc1)NCc1cccc(Cl)c1`, for which the T/C runs as follows: under setting [1], 99 % of control; under setting [2], 92 % of control; under setting [3], 92 % of control.
In the case of `Clc1cccc2nsnc12`, the T/C (dose: 100.0 mg/kg/injection, schedule: Q01DX009 (ip), vehicle: Klucel (hydroxypropylcellulose) (HPC)) is 102 % of control; the T/C under setting [4] was 100 % of control; the T/C under setting [5] is 102 % of control.
On to `O=C(O)C1C2CCC(O2)C1C(=O)Nc1ccccc1` (stereo not given), for which the T/C is, setting by setting: under setting [6], 102 % of control; (dose: 150.0 mg/kg/injection, schedule: Q01DX001 (ip), vehicle: carboxymethylcellulose (CMC)) 102 % of control; (dose: 300.0 mg/kg/injection, schedule: Q01DX001 (ip), vehicle: carboxymethylcellulose (CMC)) 101 % of control.
As to `CC(=O)OCC1OC(n2cnc(C(N)=O)c2N)C(OC(C)=O)C1OC(C)=O` (stereo not given), the T/C under setting [7] is 95 % of control and the T/C (dose: 200.0 mg/kg/injection, schedule: Q01DX005 (ip), vehicle: saline) was 96 % of control.
Turning to `C[Si](C)(CCCOCC1CO1)O[Si](C)(C)CCCOCC1CO1` (stereo not given), the T/C reads like this: under setting [8], 97 % of control; under setting [9], 95 % of control; under setting [10], 97 % of control; under setting [11], 89 % of control; under setting [12], 92 % of control; under setting [13], 87 % of control.
Take `COc1cc([N+](=O)[O-])ccc1S(=O)(=O)F`: the T/C is 95 % of control under setting [1], 98 % of control under setting [2] and 90 % of control under setting [3].
As to `CC[As](=O)(O)c1ccc([N+](=O)[O-])cc1`, the T/C (dose: 100.0 mg/kg/injection, schedule: Q01DX001 (ip), vehicle: saline with Tween-80) is 101 % of control.
As to `C1=C\CCCC/C=C/CC/1`, the T/C by setting is: under setting [14], 103 % of control; under setting [15], 92 % of control; under setting [16], 101 % of control; under setting [17], 90 % of control.
Turning to `CCN(CC)CCNC(=O)c1c2nc3c(C(=O)NCCN(CC)CC)ccc(C)c3oc-2c(C)c(=O)c1N`, the T/C was 101 % of control (dose: 25.0 mg/kg/injection, schedule: Q04DX002 (ip), vehicle: Klucel (hydroxypropylcellulose) (HPC)); 97 % of control (dose: 50.0 mg/kg/injection, schedule: Q04DX002 (ip), vehicle: Klucel (hydroxypropylcellulose) (HPC)); 105 % of control under setting [6]; 94 % of control under setting [18].
Take `Cn1cnc(N)c1C(N)=S`: the T/C runs as follows: under setting [19], 100 % of control; under setting [4], 98 % of control; under setting [20], 92 % of control; under setting [5], 92 % of control; under setting [21], 104 % of control.
Turning to `COc1ccc(CC(=O)C2C(=O)N(C)c3ccccc32)cc1OC` (stereo not given), the T/C under setting [14] is 104 % of control, the T/C under setting [15] is 102 % of control, the T/C under setting [16] was 96 % of control and the T/C under setting [17] was 98 % of control.
For the compound `COc1ccccc1CN1CCCN(Cc2ccccc2OC)C1`, the T/C is, setting by setting: under setting [22], 97 % of control; under setting [23], 105 % of control; under setting [24], 97 % of control.
For `OC(c1cc(C(F)(F)F)nc2c(F)cccc12)C1CCCCN1` (stereo not given), the T/C reads like this: under setting [9], 102 % of control; under setting [11], 105 % of control; under setting [13], 96 % of control.
As for `CCCCOC(=O)C1CCCC1=O` (stereo not given), the T/C runs as follows: under setting [8], 94 % of control; under setting [9], 97 % of control; under setting [10], 103 % of control; under setting [11], 94 % of control; under setting [12], 95 % of control; under setting [13], 97 % of control.
Turning to `O=C(COc1cccc(Cl)c1)Nc1ccc(Cl)cc1`, the T/C reads like this: under setting [1], 86 % of control; under setting [2], 86 % of control; under setting [3], 87 % of control.
On to `O=C(O)c1cc(Br)cc(Br)c1Cl`, for which the T/C runs as follows: under setting [18], 108 % of control; (dose: 200.0 mg/kg/injection, schedule: Q04DX002 (ip), vehicle: Klucel (hydroxypropylcellulose) (HPC)) 105 % of control; (dose: 400.0 mg/kg/injection, schedule: Q04DX002 (ip), vehicle: Klucel (hydroxypropylcellulose) (HPC)) 97 % of control.
As to `CCCCCCCCCCCCCCCCOB(OCCCCCCCCCCCCCCCC)OCCCCCCCCCCCCCCCC`, the T/C (dose: 100.0 mg/kg/injection, schedule: Q04DX003 (ip), vehicle: Klucel (hydroxypropylcellulose) (HPC)) is 91 % of control; the T/C (dose: 200.0 mg/kg/injection, schedule: Q04DX003 (ip), vehicle: Klucel (hydroxypropylcellulose) (HPC)) is 96 % of control; the T/C (dose: 400.0 mg/kg/injection, schedule: Q04DX003 (ip), vehicle: Klucel (hydroxypropylcellulose) (HPC)) is 94 % of control.
Consider `CC(=O)OCC1OC(Oc2ncc(C)c(=O)[nH]2)C(Nc2ccc([N+](=O)[O-])cc2[N+](=O)[O-])C(OC(C)=O)C1OC(C)=O` (stereo not given), for which the T/C was 100 % of control (dose: 50.0 mg/kg/injection, schedule: Q01DX001 (ip), vehicle: carboxymethylcellulose (CMC)); 97 % of control under setting [22]; 103 % of control under setting [23]; 92 % of control under setting [24].
Consider `CC(C)C(NC(=O)CNC(=O)CN)C(=O)O` (stereo not drawn) (H-Gly-Gly-[ξV]-OH), for which the T/C is 104 % of control (dose: 100.0 mg/kg/injection, schedule: Q01DX009 (ip), vehicle: saline); 106 % of control under setting [19]; 102 % of control (dose: 200.0 mg/kg/injection, schedule: Q01DX009 (ip), vehicle: saline); 103 % of control under setting [20]; 102 % of control (dose: 400.0 mg/kg/injection, schedule: Q01DX009 (ip), vehicle: saline); 106 % of control under setting [21].
As to `COc1ccc(COC2C(O)C(CO)OC2n2ccc(N)nc2=O)cc1` (stereo not given), the T/C (dose: 12.5 mg/kg/injection, schedule: Q01DX005 (ip), vehicle: saline) was 103 % of control; the T/C (dose: 25.0 mg/kg/injection, schedule: Q01DX005 (ip), vehicle: saline) was 100 % of control; the T/C (dose: 50.0 mg/kg/injection, schedule: Q01DX005 (ip), vehicle: saline) is 94 % of control; the T/C under setting [7] is 107 % of control.
In the case of `CC(C)(C)C(=O)CC(=O)C(C)(C)C.CC(C)(C)C(=O)CC(=O)C(C)(C)C.[Cu]`, the T/C (dose: 75.0 mg/kg/injection, schedule: Q01DX001 (ip), vehicle: other) is 103 % of control and the T/C (dose: 150.0 mg/kg/injection, schedule: Q01DX001 (ip), vehicle: other) was 94 % of control.
For the compound `N#CC(C#N)N=Nc1ccc(S(=O)(=O)Nc2ccccn2)cc1`, the T/C (dose: 75.0 mg/kg/injection, schedule: Q01DX001 (ip), vehicle: saline) is 95 % of control and the T/C (dose: 150.0 mg/kg/injection, schedule: Q01DX001 (ip), vehicle: saline) was 90 % of control.
